Laboratory results from patent publication US20230085307A1, “PYRIDAZINONE COMPOUND AND HERBICIDE” (NISSAN CHEMICAL CORPORATION, priority 2019, published 2023).

Columns and labels:
late watergrass = assay: Test Example 1: herbicidal activity, application before weed generation under submerged conditions (Table 16, symbol A); assay type: in vivo, late watergrass (Echinochloa oryzicola); conditions: 320 g/ha applied herbicide
Procedure, shortened: (§1)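 Emulsion formulation, water-diluted to set dose, was put onto the flooded surface (4 cm depth, alluvial soil) the same day weeds were sown and 2.5-leaf rice transplanted. After 3 weeks at 25-30 °C under glass, each species was rated 0 (≤5% kill) to 5 (≥90% kill).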

Japanese bulrush = assay: Test Example 1: herbicidal activity, application before weed generation under submerged conditions (Table 16, symbol B); assay type: in vivo, Japanese bulrush (Schoenoplectus juncoides); conditions: 320 g/ha applied herbicide
Procedure, shortened: as §1

oval-leafed pondweed = assay: Test Example 1: herbicidal activity, application before weed generation under submerged conditions (Table 16, symbol C); assay type: in vivo, oval-leafed pondweed (Monochoria vaginalis); conditions: 320 g/ha applied herbicide
Procedure, shortened: as §1

barnyard grass [1] = assay: Test Example 3: herbicidal effect by foliage application, Wagner pot (Table 18, symbol H); assay type: in vivo, barnyard grass (Echinochloa crus-galli); conditions: 320 g/ha
Procedure, shortened: (§2)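 Plants were sown in alluvial soil held under 0.1–0.5 cm standing water and grown 14 days in a greenhouse at 25–30 °C. An emulsifiable formulation, water-diluted to the set dose, was then sprayed onto the foliage, and effects were scored three weeks later using previously defined criteria.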

Chinese sprangletop = assay: Test Example 3: herbicidal effect by foliage application, Wagner pot (Table 18, symbol D); assay type: in vivo, chinese sprangletop (Leptochloa chinensis); conditions: 320 g/ha
Procedure, shortened: as §2

rice flat sedge = assay: Test Example 3: herbicidal effect by foliage application, Wagner pot (Table 18, symbol E); assay type: in vivo, rice flat sedge (Cyperus iria); conditions: 320 g/ha
Procedure, shortened: as §2

southern crabgrass [2] = assay: Test Example 4: herbicidal effect by soil treatment (Table 19, symbol F); assay type: in vivo, southern crabgrass (Digitaria ciliaris); conditions: amount of applied herbicide 320 g/ha
Procedure, shortened: (§3)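 Soil-surface application: an emulsion agent diluted with water to the predetermined dose is sprayed uniformly over seeds lying under roughly 1.5 cm of sterilized diluvial soil. Boxes stay in a greenhouse at 25° C. to 30° C. Three weeks later, each species is graded on previously defined criteria.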

green foxtail [3] = assay: Test Example 4: herbicidal effect by soil treatment (Table 19, symbol G); assay type: in vivo, green foxtail (Setaria viridis); conditions: amount of applied herbicide 320 g/ha
Procedure, shortened: as §3

barnyard grass [4] = assay: Test Example 4: herbicidal effect by soil treatment (Table 19, symbol H); assay type: in vivo, barnyard grass (Echinochloa crus-galli); conditions: amount of applied herbicide 320 g/ha
Procedure, shortened: as §3

wild oat [5] = assay: Test Example 4: herbicidal effect by soil treatment (Table 19, symbol I); assay type: in vivo, wild oat (Avena fatua); conditions: amount of applied herbicide 320 g/ha
Procedure, shortened: as §3

blackgrass [6] = assay: Test Example 4: herbicidal effect by soil treatment (Table 19, symbol J); assay type: in vivo, blackgrass (Alopecurus myosuroides); conditions: amount of applied herbicide 320 g/ha
Procedure, shortened: as §3

Italian ryegrass [7] = assay: Test Example 4: herbicidal effect by soil treatment (Table 19, symbol K); assay type: in vivo, Italian ryegrass (Lolium multiflorum); conditions: amount of applied herbicide 320 g/ha
Procedure, shortened: as §3

windgrass [8] = assay: Test Example 4: herbicidal effect by soil treatment (Table 19, symbol L); assay type: in vivo, windgrass (Apera spica-venti); conditions: amount of applied herbicide 320 g/ha
Procedure, shortened: as §3

velvetleaf [9] = assay: Test Example 4: herbicidal effect by soil treatment (Table 19, symbol M); assay type: in vivo, velvetleaf (Abutilon theophrasti); conditions: amount of applied herbicide 320 g/ha
Procedure, shortened: as §3

redroot pigweed [10] = assay: Test Example 4: herbicidal effect by soil treatment (Table 19, symbol N); assay type: in vivo, redroot pigweed (Amaranthus retroflexus); conditions: amount of applied herbicide 320 g/ha
Procedure, shortened: as §3

lambsquarters [11] = assay: Test Example 4: herbicidal effect by soil treatment (Table 19, symbol O); assay type: in vivo, lambsquarters (Chenopodium album); conditions: amount of applied herbicide 320 g/ha
Procedure, shortened: as §3

chickweed [12] = assay: Test Example 4: herbicidal effect by soil treatment (Table 19, symbol P); assay type: in vivo, common chickweed (Stellaria media); conditions: amount of applied herbicide 320 g/ha
Procedure, shortened: as §3

false cleavers [13] = assay: Test Example 4: herbicidal effect by soil treatment (Table 19, symbol Q); assay type: in vivo, false cleavers (Galium spurium); conditions: amount of applied herbicide 320 g/ha
Procedure, shortened: as §3

persian speedwell [14] = assay: Test Example 4: herbicidal effect by soil treatment (Table 19, symbol R); assay type: in vivo, Persian speedwell (Veronica persica); conditions: amount of applied herbicide 320 g/ha
Procedure, shortened: as §3

southern crabgrass [15] = assay: Test Example 5: herbicidal effect by foliage application, plastic box (Table 20, symbol F); assay type: in vivo, southern crabgrass (Digitaria ciliaris); conditions: foliage application, 320 g/ha, three weeks after application
Procedure, shortened: (§4)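 Sow seeds spot-wise in sterilized diluvial soil; cover with ~1.5 cm soil. Grow 14 days in greenhouse, 25° C. to 30° C. Spray foliage with emulsion diluted to predetermined amount. Rate effect after 3 weeks.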

green foxtail [16] = assay: Test Example 5: herbicidal effect by foliage application, plastic box (Table 20, symbol G); assay type: in vivo, green foxtail (Setaria viridis); conditions: foliage application, 320 g/ha, three weeks after application
Procedure, shortened: as §4

barnyard grass [17] = assay: Test Example 5: herbicidal effect by foliage application, plastic box (Table 20, symbol H); assay type: in vivo, barnyard grass (Echinochloa crus-galli); conditions: foliage application, 320 g/ha, three weeks after application
Procedure, shortened: as §4

wild oat [18] = assay: Test Example 5: herbicidal effect by foliage application, plastic box (Table 20, symbol I); assay type: in vivo, wild oat (Avena fatua); conditions: foliage application, 320 g/ha, three weeks after application
Procedure, shortened: as §4

blackgrass [19] = assay: Test Example 5: herbicidal effect by foliage application, plastic box (Table 20, symbol J); assay type: in vivo, blackgrass (Alopecurus myosuroides); conditions: foliage application, 320 g/ha, three weeks after application
Procedure, shortened: as §4

Italian ryegrass [20] = assay: Test Example 5: herbicidal effect by foliage application, plastic box (Table 20, symbol K); assay type: in vivo, Italian ryegrass (Lolium multiflorum); conditions: foliage application, 320 g/ha, three weeks after application
Procedure, shortened: as §4

windgrass [21] = assay: Test Example 5: herbicidal effect by foliage application, plastic box (Table 20, symbol L); assay type: in vivo, windgrass (Apera spica-venti); conditions: foliage application, 320 g/ha, three weeks after application
Procedure, shortened: as §4

velvetleaf [22] = assay: Test Example 5: herbicidal effect by foliage application, plastic box (Table 20, symbol M); assay type: in vivo, velvetleaf (Abutilon theophrasti); conditions: foliage application, 320 g/ha, three weeks after application
Procedure, shortened: as §4

redroot pigweed [23] = assay: Test Example 5: herbicidal effect by foliage application, plastic box (Table 20, symbol N); assay type: in vivo, redroot pigweed (Amaranthus retroflexus); conditions: foliage application, 320 g/ha, three weeks after application
Procedure, shortened: as §4

lambsquarters [24] = assay: Test Example 5: herbicidal effect by foliage application, plastic box (Table 20, symbol O); assay type: in vivo, lambsquarters (Chenopodium album); conditions: foliage application, 320 g/ha, three weeks after application
Procedure, shortened: as §4

chickweed [25] = assay: Test Example 5: herbicidal effect by foliage application, plastic box (Table 20, symbol P); assay type: in vivo, common chickweed (Stellaria media); conditions: foliage application, 320 g/ha, three weeks after application
Procedure, shortened: as §4

false cleavers [26] = assay: Test Example 5: herbicidal effect by foliage application, plastic box (Table 20, symbol Q); assay type: in vivo, false cleavers (Galium spurium); conditions: foliage application, 320 g/ha, three weeks after application
Procedure, shortened: as §4

persian speedwell [27] = assay: Test Example 5: herbicidal effect by foliage application, plastic box (Table 20, symbol R); assay type: in vivo, Persian speedwell (Veronica persica); conditions: foliage application, 320 g/ha, three weeks after application
Procedure, shortened: as §4

With `CCCCCOc1ccc(-c2sc3ccccc3c2-c2c(OC(=O)CCC)c(C)nn(C)c2=O)cc1` [1-027] the “Herbicidal effect on A: late watergrass (grade 0-5)” value (late watergrass) was 0 (Herbicidal rate of 5% or less (almost no effect)), the “Herbicidal effect on B: Japanese bulrush (grade 0-5)” value (Japanese bulrush) was 2 (Herbicidal rate of 20% or more and less than 40%) and the “Herbicidal effect on C: oval-leafed pondweed (grade 0-5)” value (oval-leafed pondweed) was 0 (Herbicidal rate of 5% or less (almost no effect)). For the same molecule, the “herbicidal effect on H (barnyard grass), rating 0-5” value (barnyard grass [1]) was 3 (Herbicidal rate of 40% or more and less than 70%), the “herbicidal effect on D (Chinese sprangletop), rating 0-5” value (Chinese sprangletop) was 2 (Herbicidal rate of 20% or more and less than 40%) and the “herbicidal effect on E (rice flat sedge), rating 0-5” value (rice flat sedge) was 1 (Herbicidal rate of 5% or more and less than 20%). For the same molecule, the “herbicidal effect rating, F: southern crabgrass” value (southern crabgrass [2]) was 0 (Herbicidal rate of 5% or less (almost no effect)), the “herbicidal effect rating, G: green foxtail” value (green foxtail [3]) was 0 (Herbicidal rate of 5% or less (almost no effect)) and the “herbicidal effect rating, H: barnyard grass” value (barnyard grass [4]) was 0 (Herbicidal rate of 5% or less (almost no effect)). The “herbicidal effect rating, I: wild oat” value (wild oat [5]) was 0 (Herbicidal rate of 5% or less (almost no effect)), the “herbicidal effect rating, J: blackgrass” value (blackgrass [6]) was 0 (Herbicidal rate of 5% or less (almost no effect)) and the “herbicidal effect rating, K: Italian ryegrass” value (Italian ryegrass [7]) was 0 (Herbicidal rate of 5% or less (almost no effect)). For the same molecule, the “herbicidal effect rating, L: windgrass” value (windgrass [8]) was 0 (Herbicidal rate of 5% or less (almost no effect)), the “herbicidal effect rating, M: velvetleaf” value (velvetleaf [9]) was 0 (Herbicidal rate of 5% or less (almost no effect)) and the “herbicidal effect rating, N: redroot pigweed” value (redroot pigweed [10]) was 0 (Herbicidal rate of 5% or less (almost no effect)). For the same molecule, the “herbicidal effect rating, O: lambsquarters” value (lambsquarters [11]) was 0 (Herbicidal rate of 5% or less (almost no effect)), the “herbicidal effect rating, P: chickweed” value (chickweed [12]) was 2 (Herbicidal rate of 20% or more and less than 40%) and the “herbicidal effect rating, Q: false cleavers” value (false cleavers [13]) was 3 (Herbicidal rate of 40% or more and less than 70%). For the same molecule, the “herbicidal effect rating, R: persian speedwell” value (persian speedwell [14]) was 2 (Herbicidal rate of 20% or more and less than 40%), the “herbicidal effect grade, F: southern crabgrass” value (southern crabgrass [15]) was 0 (Herbicidal rate of 5% or less (almost no effect)) and the “herbicidal effect grade, G: green foxtail” value (green foxtail [16]) was 0 (Herbicidal rate of 5% or less (almost no effect)). For the same molecule, the “herbicidal effect grade, H: barnyard grass” value (barnyard grass [17]) was 3 (Herbicidal rate of 40% or more and less than 70%), the “herbicidal effect grade, I: wild oat” value (wild oat [18]) was 0 (Herbicidal rate of 5% or less (almost no effect)) and the “herbicidal effect grade, J: blackgrass” value (blackgrass [19]) was 0 (Herbicidal rate of 5% or less (almost no effect)). For the same molecule, the “herbicidal effect grade, K: Italian ryegrass” value (Italian ryegrass [20]) was 0 (Herbicidal rate of 5% or less (almost no effect)), the “herbicidal effect grade, L: windgrass” value (windgrass [21]) was 0 (Herbicidal rate of 5% or less (almost no effect)) and the “herbicidal effect grade, M: velvetleaf” value (velvetleaf [22]) was 3 (Herbicidal rate of 40% or more and less than 70%). The “herbicidal effect grade, N: redroot pigweed” value (redroot pigweed [23]) was 5 (Herbicidal rate of 90% or more (almost completely withered)), the “herbicidal effect grade, O: lambsquarters” value (lambsquarters [24]) was 3 (Herbicidal rate of 40% or more and less than 70%) and the “herbicidal effect grade, P: chickweed” value (chickweed [25]) was 5 (Herbicidal rate of 90% or more (almost completely withered)). For the same molecule, the “herbicidal effect grade, Q: false cleavers” value (false cleavers [26]) was 3 (Herbicidal rate of 40% or more and less than 70%) and the “herbicidal effect grade, R: persian speedwell” value (persian speedwell [27]) was 4 (Herbicidal rate of 70% or more and less than 90%).
